Test results taken from patent publication US20040072824A1, “Methods and compositions for the treatment of cancer” (priority 2001, published 2004).
Counter-ions that a name gives are not always drawn. Like-named read-outs stand apart in the source and are kept apart here.

Columns and labels:
[1] = tested on: MDA-MB-231 (breast cancer line); assay: Curative effects on palpable tumors, MDA-MB-231 cells in scid/scid mice; type: in vivo; settings: 2.5 mg/kg daily once tumors palpable
Procedure: In this series of experiments, effects of various compounds of the present invention on tumor development were tested using two protocols. The first protocol is directed to the testing of curative effects of these compounds in different cell lines. In this protocol, cancerous cells are inoculated to the animals, and the inoculated animals were left without any further treatment until the development of tumors. As soon as the tumors became palable (4 mm^3), the compounds of this invention were administered daily to the animals.

[2] = tested on: blastic cells from AML patients; assay: Inhibition of viability of fresh leukemic cells (trypan blue exclusion); type: cell-based, human; settings: day 3; for cytotoxicity at 10 µM / cytotoxicity at 1 µM: Homo sapiens
Procedure: Samples for AML 1 through 5, AML 1 being the least and AML 5 being the most differentiated, were obtained. […] Cells were incubated with or without […] anti-histamine derivatives. Polaramine was included as a negative control. Cell counts were assessed by trypan blue exclusion test at day 3 after the incubation. Morphological analysis was performed using Wright-Giemsa staining on cytocentrifuge preparations. The results were expressed as % inhibition of growth as compared to negative control.

[3] = tested on: K562, U937, MDA-DB231, BT20 and MCF7 cell lines; assay: Cytotoxic effects in multi-well plate, 6 days, ATP level (CellTiter-Glo); settings: 2x10^-9 M to 2x10^-4 M
Procedure: In order to test the cytotoxic effects of various compounds, a test was developed in a multi-well plate. Two leukemic cell lines, namely K562 and U937, and three breast cancer cell lines, namely MDA-DB231, BT20 and MCF7 were used for this test.
The cells were seeded at low density and were left for 24 hours to recover and reach a new logarithmic phase of growth. Various concentrations of the compounds being tested, ranging from 2×10^−9 M to 2×10^−4 M, were added in triplicate. The mixture was incubated for 6 days, during which approximately 4 doublings of the cell population occurred, to allow the cells to reach subconfluence.
The viability of the cultured cells after the treatment by the compounds was determined by quantifying the level of ATP since the level of ATP is directly proportional to the number of viable cells present in the culture. The ATP level was quantified by using CellTiter-Glo™ (Promega) luminescent test for cell viability.

[4] = tested on: K562, U937, Jurkat, T47-D, MCF7, BT20 and 184B5 cell lines; assay: Cytotoxicity in malignant and immortalized cell lines (manual counting, Alamar assay); type: cell-based; settings: all of the cell lines tested
Procedure: These four compounds were added at different concentrations to cultures of various malignant cell lines and normal cells. The cell lines used for these tests were the following:
All leukemic cell lines were grown and used in logarithmic phase. After one day of treatment, the cells were isolated, counted and diluted in a regular growth medium to provide the cell density of about 75×10^3 cells/ml for reading on plates at 48 hours after the treatment, and […] for reading at 144 hours after the treatment.
Several dilutions of each compound tested were added to the wells (12 wells per plate, TPP), and 1 ml of cells from the parent solution was added per well after a line had been completed. The dilutions were made using the culture medium, and following dilutions were tested: control, which contained no compound of this invention; 1:100; 1:1,000; 1:2,000; 1:5,000; and 1:10,000. The starting concentrations for these dilutions were: 50 mg/ml for compound A; 10 mg/ml for compound B; 25 mg/ml for compound C; and 5 mg/ml for compound D. The results were analyzed by manual counting and Alamar reduced assay.
The cells were grown on their respective propagation medium and seeded 24 hours before the compounds are added. The cells were trypsinized, and 50,000 cells/well and 10,000 cells/well were seeded in order to read the plates at 48 hours and 144 hours after being treated by the compounds, respectively.
On the day of the treatment, the medium was replaced by 10 ml each of series dilution of the compounds, consisting of: control, which contained no compound of this invention; 1:100 dilution; 1:1,000 dilution; 1:2,000 dilution; and 1:5,000 dilution. The starting concentrations for these dilutions were: 50 mg/ml for compound A; 10 mg/ml for compound B; 25 mg/ml for compound C; and 5 mg/ml for compound D. The dilution was made using the growth medium.
A tested compound is regarded as being active in cytotoxicity where the percentage of surviving cells after the treatment with the compound is less than 30%.

[5] = 72 h, patient ID 14, FAB AML5, 10^-5 M, read-out: In Vitro Percent Inhibition of Viability

With `OCCN1CCN(CCCN2c3ccccc3Sc3ccc(Cl)cc32)CC1` [S64, perphenazine] the tumor volume [1] was “regression of the tumor volume”, the cytotoxicity at 10 µM ([2]; 72 h, MEAN over AML patients, 10^-5 M, read-out: In Vitro Percent Inhibition of Viability, MEAN) was 36% and the cytotoxicity at 1 µM ([2]; 72 h, MEAN over AML patients, 10^-6 M, read-out: In Vitro Percent Inhibition of Viability, MEAN) was 11%. The cytotoxicity at 10 µM ([2]; 72 h, patient ID 3, FAB AML2, 10^-5 M, read-out: In Vitro Percent Inhibition of Viability) was 31%, the cytotoxicity at 1 µM ([2]; 72 h, patient ID 3, FAB AML2, 10^-6 M, read-out: In Vitro Percent Inhibition of Viability) was 12% and the cytotoxicity at 10 µM ([2]; 72 h, patient ID 4, FAB AML2, 10^-5 M, read-out: In Vitro Percent Inhibition of Viability) was 27%. The cytotoxicity at 1 µM ([2]; 72 h, patient ID 4, FAB AML2, 10^-6 M, read-out: In Vitro Percent Inhibition of Viability) was 25%, the cytotoxicity at 10 µM ([2]; 72 h, patient ID 5, FAB AML2, 10^-5 M, read-out: In Vitro Percent Inhibition of Viability) was 26% and the cytotoxicity at 1 µM ([2]; 72 h, patient ID 5, FAB AML2, 10^-6 M, read-out: In Vitro Percent Inhibition of Viability) was 3%. The cytotoxicity at 10 µM ([2]; 72 h, patient ID 10, FAB AML4, 10^-5 M, read-out: In Vitro Percent Inhibition of Viability) was 42%, the cytotoxicity at 1 µM ([2]; 72 h, patient ID 10, FAB AML4, 10^-6 M, read-out: In Vitro Percent Inhibition of Viability) was 36% and the cytotoxicity at 10 µM ([2]; 72 h, patient ID 11, FAB AML5, 10^-5 M, read-out: In Vitro Percent Inhibition of Viability) was 57%. It also gave a cytotoxicity at 1 µM ([2]; 72 h, patient ID 11, FAB AML5, 10^-6 M, read-out: In Vitro Percent Inhibition of Viability) of 7%, a cytotoxicity at 10 µM ([2]; 72 h, patient ID 12, FAB AML5, 10^-5 M, read-out: In Vitro Percent Inhibition of Viability) of 54% and a cytotoxicity at 10 µM ([2]; 72 h, patient ID 13, FAB AML5, 10^-5 M, read-out: In Vitro Percent Inhibition of Viability) of 47%. The cytotoxicity at 1 µM ([2]; 72 h, patient ID 13, FAB AML5, 10^-6 M, read-out: In Vitro Percent Inhibition of Viability) was 0%, the cytotoxicity at 10 µM [2, 5] was 23% and the cytotoxicity at 1 µM ([2]; 72 h, patient ID 14, FAB AML5, 10^-6 M, read-out: In Vitro Percent Inhibition of Viability) was 18%. It also gave a cytotoxicity at 10 µM ([2]; 72 h, patient ID 15, FAB AML5, 10^-5 M, read-out: In Vitro Percent Inhibition of Viability) of 17%, a cytotoxicity at 1 µM ([2]; 72 h, patient ID 15, FAB AML5, 10^-6 M, read-out: In Vitro Percent Inhibition of Viability) of 8% and a cytotoxicity at 10 µM ([2]; AML1, 72 h, patient ID 1, FAB AML1, 10^-5 M, read-out: In Vitro Percent Inhibition of Viability) of 17%. It also gave a cytotoxicity at 1 µM ([2]; AML1, 72 h, patient ID 1, FAB AML1, 10^-6 M, read-out: In Vitro Percent Inhibition of Viability) of 8%, a cytotoxicity at 10 µM ([2]; AML1, 72 h, patient ID 2, FAB AML1, 10^-5 M, read-out: In Vitro Percent Inhibition of Viability) of 32% and a cytotoxicity at 1 µM ([2]; AML1, 72 h, patient ID 2, FAB AML1, 10^-6 M, read-out: In Vitro Percent Inhibition of Viability) of 0%. It also gave a cytotoxicity at 10 µM ([2]; AML3, 72 h, patient ID 6, FAB AML3, 10^-5 M, read-out: In Vitro Percent Inhibition of Viability) of 35%, a cytotoxicity at 1 µM ([2]; AML3, 72 h, patient ID 6, FAB AML3, 10^-6 M, read-out: In Vitro Percent Inhibition of Viability) of 24% and a cytotoxicity at 10 µM ([2]; AML3, 72 h, patient ID 7, FAB AML3, 10^-5 M, read-out: In Vitro Percent Inhibition of Viability) of 45%. The cytotoxicity at 1 µM ([2]; AML3, 72 h, patient ID 7, FAB AML3, 10^-6 M, read-out: In Vitro Percent Inhibition of Viability) was 0%, the cytotoxicity at 10 µM ([2]; AML3, 72 h, patient ID 8, FAB AML3, 10^-5 M, read-out: In Vitro Percent Inhibition of Viability) was 50% and the cytotoxicity at 1 µM ([2]; AML3, 72 h, patient ID 8, FAB AML3, 10^-6 M, read-out: In Vitro Percent Inhibition of Viability) was 18%. The cytotoxicity at 10 µM ([2]; AML3, 72 h, patient ID 9, FAB AML3, 10^-5 M, read-out: In Vitro Percent Inhibition of Viability) was 35%, the cytotoxicity at 1 µM ([2]; AML3, 72 h, patient ID 9, FAB AML3, 10^-6 M, read-out: In Vitro Percent Inhibition of Viability) was 0% and the cytotoxic effect group [3] was “I”.

`OCCN1CCN(CC/C=C2/c3ccccc3Sc3ccc(C(F)(F)F)cc32)CC1` [i41, flupentixol] was tested, and the “In Vitro Percent Inhibition of Viability, MEAN” value ([2]; MEAN over AML patients, 10^-5 M) was 50%, the “In Vitro Percent Inhibition of Viability, MEAN” value ([2]; MEAN over AML patients, 10^-6 M) was 24% and the “In Vitro Percent Inhibition of Viability” value ([2]; patient ID 1, FAB AML1, 10^-5 M) was 20%. For the same compound, the “In Vitro Percent Inhibition of Viability” value ([2]; patient ID 1, FAB AML1, 10^-6 M) was 25%, the “In Vitro Percent Inhibition of Viability” value ([2]; patient ID 2, FAB AML1, 10^-5 M) was 30% and the “In Vitro Percent Inhibition of Viability” value ([2]; patient ID 2, FAB AML1, 10^-6 M) was 0%. For the same compound, the “In Vitro Percent Inhibition of Viability” value ([2]; patient ID 3, FAB AML2, 10^-5 M) was 68%, the “In Vitro Percent Inhibition of Viability” value ([2]; patient ID 3, FAB AML2, 10^-6 M) was 34% and the “In Vitro Percent Inhibition of Viability” value ([2]; patient ID 4, FAB AML2, 10^-5 M) was 38%. For the same compound, the “In Vitro Percent Inhibition of Viability” value ([2]; patient ID 4, FAB AML2, 10^-6 M) was 35%, the “In Vitro Percent Inhibition of Viability” value ([2]; patient ID 5, FAB AML2, 10^-5 M) was 40% and the “In Vitro Percent Inhibition of Viability” value ([2]; patient ID 5, FAB AML2, 10^-6 M) was 1%. The “In Vitro Percent Inhibition of Viability” value ([2]; patient ID 6, FAB AML3, 10^-5 M) was 85%, the “In Vitro Percent Inhibition of Viability” value ([2]; patient ID 6, FAB AML3, 10^-6 M) was 24% and the “In Vitro Percent Inhibition of Viability” value ([2]; patient ID 7, FAB AML3, 10^-5 M) was 50%. For the same compound, the “In Vitro Percent Inhibition of Viability” value ([2]; patient ID 7, FAB AML3, 10^-6 M) was 30%, the “In Vitro Percent Inhibition of Viability” value ([2]; patient ID 8, FAB AML3, 10^-5 M) was 46% and the “In Vitro Percent Inhibition of Viability” value ([2]; patient ID 8, FAB AML3, 10^-6 M) was 38%. For the same compound, the “In Vitro Percent Inhibition of Viability” value ([2]; patient ID 9, FAB AML3, 10^-5 M) was 97%, the “In Vitro Percent Inhibition of Viability” value ([2]; patient ID 9, FAB AML3, 10^-6 M) was 23% and the “In Vitro Percent Inhibition of Viability” value ([2]; patient ID 10, FAB AML4, 10^-5 M) was 55%. The “In Vitro Percent Inhibition of Viability” value ([2]; patient ID 10, FAB AML4, 10^-6 M) was 33%, the “In Vitro Percent Inhibition of Viability” value ([2]; patient ID 11, FAB AML5, 10^-5 M) was 75% and the “In Vitro Percent Inhibition of Viability” value ([2]; patient ID 11, FAB AML5, 10^-6 M) was 36%. For the same compound, the “In Vitro Percent Inhibition of Viability” value ([2]; patient ID 12, FAB AML5, 10^-5 M) was 55%, the “In Vitro Percent Inhibition of Viability” value ([2]; patient ID 13, FAB AML5, 10^-5 M) was 40% and the “In Vitro Percent Inhibition of Viability” value ([2]; patient ID 13, FAB AML5, 10^-6 M) was 24%. The “In Vitro Percent Inhibition of Viability” value ([2]; patient ID 14, FAB AML5, 10^-5 M) was 25%, the “In Vitro Percent Inhibition of Viability” value ([2]; patient ID 14, FAB AML5, 10^-6 M) was 23% and the “In Vitro Percent Inhibition of Viability” value ([2]; patient ID 15, FAB AML5, 10^-5 M) was 27%. The “In Vitro Percent Inhibition of Viability” value ([2]; patient ID 15, FAB AML5, 10^-6 M) was 16% and the cytotoxic effect group [3] was “I”.

`CN(C)CC[C@@H](c1ccc(Cl)cc1)c1ccccn1` [D, dexchlorpheniramine maleate] was tested, and the cytotoxicity at 10 µM [2, 5] was 9% and the cytotoxic activity [4] was “little or no cytotoxic activity”.
